{
  "source": "patent US10760110B2",
  "about": "“Antibiotic testing and screening system” (priority 2017, dated 2020)",
  "conditions_in_all_cases": "Klebsiella pneumoniae",
  "key": {"[1]": {"system": "K. pneumoniae NVT1001 ΔramRΔompK35/36 mutant and its revertants", "assay": "Etest MIC, ΔramRΔompK35/36 mutant and its revertants (Table 7)", "format": "cell-based"}, "[2]": {"system": "K. pneumoniae NVT1001 strains with carbapenemase plasmids", "assay": "Etest MIC of β-lactams, OmpK35/36 loss, ΔramR and/or carbapenemase (Table 9)", "format": "cell-based, Klebsiella pneumoniae", "in_short": "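Cloned resistance genes in pACYC177 or pACYC184 were electroporated into K. pneumoniae NVT1001. MICs were determined by Etest and rounded up to the next two-fold value. Ceftazidime and cefotaxime against the blaOXA-48 construct were also tested by CLSI broth microdilution, with breakpoints from CLSI 2017 (cephalothin CLSI 2015, moxifloxacin EUCAST 2017).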"}, "[3]": {"system": "K. pneumoniae NVT1001 and its ΔompK35/36 and/or ΔramR mutants", "assay": "Etest MIC, OmpK35/36 loss and AcrAB-TolC overexpression (ΔramR) strains (Table 6)", "format": "cell-based, Klebsiella pneumoniae", "in_short": "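Etest strips per kit instructions; off-scale intermediate readings rounded upward to the nearest two-fold concentration. Broth microdilution (CLSI) for ceftazidime, cefotaxime only. Breakpoints: CLSI 2017 generally, CLSI 2015 for cephalothin, EUCAST 2017 for moxifloxacin.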"}},
  "note": "Like-named read-outs stand apart in the source and are kept apart here.",
  "data": [
    {"smiles": "C[C@@H](O)[C@H]1C(=O)N2C(C(=O)O)=C(S[C@@H]3CN[C@H](CNS(N)(=O)=O)C3)[C@H](C)[C@H]12", "note": "[Doripenem]", "values": [
      {"measurement": "MIC", "setting": "[1]; ΔramRΔompK35/36::ompK35/36 revertant", "result": 0.06, "unit": "mg/L"},
      {"measurement": "MIC", "setting": "[1]; ΔramRΔompK35/36::ompK35 revertant", "result": 0.25, "unit": "mg/L"},
      {"measurement": "MIC", "setting": "[1]; ΔramRΔompK35/36::ompK36 revertant", "result": 0.06, "unit": "mg/L"},
      {"measurement": "MIC", "setting": "[1]; ΔramRΔompK35/36::ramR revertant", "result": 0.25, "unit": "mg/L"},
      {"measurement": "MIC", "setting": "[1]; ΔramRΔompK35/36::ramR::ompK35/36 revertant", "result": 0.06, "unit": "mg/L"},
      {"measurement": "MIC", "setting": "[1]; ΔramRΔompK35/36::ramR::ompK35 revertant", "result": 0.125, "unit": "mg/L"},
      {"measurement": "MIC", "setting": "[1]; ΔramRΔompK35/36::ramR::ompK36 revertant", "result": 0.125, "unit": "mg/L"},
      {"measurement": "MIC", "setting": "[1]; ΔramRΔompK35/36 mutant", "result": 0.5, "unit": "mg/L"},
      {"measurement": "MIC", "setting": "[2]; IMP-8 on pACYC177, WT (NVT1001), read-out: MIC", "result": 1, "unit": "mg/L"},
      {"measurement": "MIC", "setting": "[2]; IMP-8 on pACYC177, Δ35 (ΔompK35 mutant)", "result": 2, "unit": "mg/L"},
      {"measurement": "MIC", "setting": "[2]; IMP-8 on pACYC177, Δ35/36 (ΔompK35/36 mutant)", "result": "> 32", "unit": "mg/L"},
      {"measurement": "MIC", "setting": "[2]; IMP-8 on pACYC177, Δ36 (ΔompK36 mutant)", "result": 2, "unit": "mg/L"},
      {"measurement": "MIC", "setting": "[2]; IMP-8 on pACYC177, ΔramR mutant", "result": 1, "unit": "mg/L"},
      {"measurement": "MIC", "setting": "[2]; IMP-8 on pACYC177, ΔramRΔ35 (ΔramRΔompK35 mutant)", "result": 2, "unit": "mg/L"},
      {"measurement": "MIC", "setting": "[2]; IMP-8 on pACYC177, ΔramRΔ35/36 (ΔramRΔompK35/36 mutant)", "result": 32, "unit": "mg/L"},
      {"measurement": "MIC", "setting": "[2]; IMP-8 on pACYC177, ΔramRΔ36 (ΔramRΔompK36 mutant)", "result": 32, "unit": "mg/L"},
      {"measurement": "MIC", "setting": "[2]; KPC-2 on pACYC177, WT (NVT1001), read-out: MIC", "result": 16, "unit": "mg/L"},
      {"measurement": "MIC", "setting": "[2]; KPC-2 on pACYC177, Δ35 (ΔompK35 mutant)", "result": 32, "unit": "mg/L"},
      {"measurement": "MIC", "setting": "[2]; KPC-2 on pACYC177, Δ35/36 (ΔompK35/36 mutant)", "result": "> 32", "unit": "mg/L"},
      {"measurement": "MIC", "setting": "[2]; KPC-2 on pACYC177, Δ36 (ΔompK36 mutant)", "result": "> 32", "unit": "mg/L"},
      {"measurement": "MIC", "setting": "[2]; KPC-2 on pACYC177, ΔramR mutant", "result": 16, "unit": "mg/L"},
      {"measurement": "MIC", "setting": "[2]; KPC-2 on pACYC177, ΔramRΔ35 (ΔramRΔompK35 mutant)", "result": 32, "unit": "mg/L"},
      {"measurement": "MIC", "setting": "[2]; KPC-2 on pACYC177, ΔramRΔ35/36 (ΔramRΔompK35/36 mutant)", "result": "> 32", "unit": "mg/L"},
      {"measurement": "MIC", "setting": "[2]; KPC-2 on pACYC177, ΔramRΔ36 (ΔramRΔompK36 mutant)", "result": "> 32", "unit": "mg/L"},
      {"measurement": "MIC", "setting": "[2]; KPC-3 on pACYC177, WT (NVT1001), read-out: MIC", "result": 8, "unit": "mg/L"},
      {"measurement": "MIC", "setting": "[2]; KPC-3 on pACYC177, Δ35 (ΔompK35 mutant)", "result": 32, "unit": "mg/L"},
      {"measurement": "MIC", "setting": "[2]; KPC-3 on pACYC177, Δ35/36 (ΔompK35/36 mutant)", "result": "> 32", "unit": "mg/L"},
      {"measurement": "MIC", "setting": "[2]; KPC-3 on pACYC177, Δ36 (ΔompK36 mutant)", "result": "> 32", "unit": "mg/L"},
      {"measurement": "MIC", "setting": "[2]; KPC-3 on pACYC177, ΔramR mutant", "result": 16, "unit": "mg/L"},
      {"measurement": "MIC", "setting": "[2]; KPC-3 on pACYC177, ΔramRΔ35 (ΔramRΔompK35 mutant)", "result": 32, "unit": "mg/L"},
      {"measurement": "MIC", "setting": "[2]; KPC-3 on pACYC177, ΔramRΔ35/36 (ΔramRΔompK35/36 mutant)", "result": "> 32", "unit": "mg/L"},
      {"measurement": "MIC", "setting": "[2]; KPC-3 on pACYC177, ΔramRΔ36 (ΔramRΔompK36 mutant)", "result": "> 32", "unit": "mg/L"},
      {"measurement": "MIC", "setting": "[2]; NDM-1 on pACYC177, WT (NVT1001), read-out: MIC", "result": 16, "unit": "mg/L"},
      {"measurement": "MIC", "setting": "[2]; NDM-1 on pACYC177, Δ35 (ΔompK35 mutant)", "result": 32, "unit": "mg/L"},
      {"measurement": "MIC", "setting": "[2]; NDM-1 on pACYC177, Δ35/36 (ΔompK35/36 mutant)", "result": "> 32", "unit": "mg/L"},
      {"measurement": "MIC", "setting": "[2]; NDM-1 on pACYC177, Δ36 (ΔompK36 mutant)", "result": "> 32", "unit": "mg/L"},
      {"measurement": "MIC", "setting": "[2]; NDM-1 on pACYC177, ΔramR mutant", "result": 32, "unit": "mg/L"},
      {"measurement": "MIC", "setting": "[2]; NDM-1 on pACYC177, ΔramRΔ35 (ΔramRΔompK35 mutant)", "result": 32, "unit": "mg/L"},
      {"measurement": "MIC", "setting": "[2]; NDM-1 on pACYC177, ΔramRΔ35/36 (ΔramRΔompK35/36 mutant)", "result": "> 32", "unit": "mg/L"},
      {"measurement": "MIC", "setting": "[2]; NDM-1 on pACYC177, ΔramRΔ36 (ΔramRΔompK36 mutant)", "result": "> 32", "unit": "mg/L"},
      {"measurement": "MIC", "setting": "[2]; OXA-48 on pACYC177, WT (NVT1001), read-out: MIC", "result": 2, "unit": "mg/L"},
      {"measurement": "MIC", "setting": "[2]; OXA-48 on pACYC177, Δ35 (ΔompK35 mutant)", "result": 2, "unit": "mg/L"},
      {"measurement": "MIC", "setting": "[2]; OXA-48 on pACYC177, Δ35/36 (ΔompK35/36 mutant)", "result": "> 32", "unit": "mg/L"},
      {"measurement": "MIC", "setting": "[2]; OXA-48 on pACYC177, Δ36 (ΔompK36 mutant)", "result": 8, "unit": "mg/L"},
      {"measurement": "MIC", "setting": "[2]; OXA-48 on pACYC177, ΔramR mutant", "result": 2, "unit": "mg/L"},
      {"measurement": "MIC", "setting": "[2]; OXA-48 on pACYC177, ΔramRΔ35 (ΔramRΔompK35 mutant)", "result": 1, "unit": "mg/L"},
      {"measurement": "MIC", "setting": "[2]; OXA-48 on pACYC177, ΔramRΔ35/36 (ΔramRΔompK35/36 mutant)", "result": "> 32", "unit": "mg/L"},
      {"measurement": "MIC", "setting": "[2]; OXA-48 on pACYC177, ΔramRΔ36 (ΔramRΔompK36 mutant)", "result": "> 32", "unit": "mg/L"},
      {"measurement": "MIC", "setting": "[2]; VIM-1 on pACYC177, WT (NVT1001), read-out: MIC", "result": 16, "unit": "mg/L"},
      {"measurement": "MIC", "setting": "[2]; VIM-1 on pACYC177, Δ35 (ΔompK35 mutant)", "result": 32, "unit": "mg/L"},
      {"measurement": "MIC", "setting": "[2]; VIM-1 on pACYC177, Δ35/36 (ΔompK35/36 mutant)", "result": "> 32", "unit": "mg/L"},
      {"measurement": "MIC", "setting": "[2]; VIM-1 on pACYC177, Δ36 (ΔompK36 mutant)", "result": "> 32", "unit": "mg/L"},
      {"measurement": "MIC", "setting": "[2]; VIM-1 on pACYC177, ΔramR mutant", "result": 32, "unit": "mg/L"},
      {"measurement": "MIC", "setting": "[2]; VIM-1 on pACYC177, ΔramRΔ35 (ΔramRΔompK35 mutant)", "result": 32, "unit": "mg/L"},
      {"measurement": "MIC", "setting": "[2]; VIM-1 on pACYC177, ΔramRΔ35/36 (ΔramRΔompK35/36 mutant)", "result": "> 32", "unit": "mg/L"},
      {"measurement": "MIC", "setting": "[2]; VIM-1 on pACYC177, ΔramRΔ36 (ΔramRΔompK36 mutant)", "result": "> 32", "unit": "mg/L"},
      {"measurement": "MIC", "setting": "[2]; no supplemental plasmid, WT (NVT1001), read-out: MIC", "result": 0.06, "unit": "mg/L"},
      {"measurement": "MIC", "setting": "[2]; no supplemental plasmid, Δ35 (ΔompK35 mutant)", "result": 0.06, "unit": "mg/L"},
      {"measurement": "MIC", "setting": "[2]; no supplemental plasmid, Δ35/36 (ΔompK35/36 mutant)", "result": 0.125, "unit": "mg/L"},
      {"measurement": "MIC", "setting": "[2]; no supplemental plasmid, Δ36 (ΔompK36 mutant)", "result": 0.06, "unit": "mg/L"},
      {"measurement": "MIC", "setting": "[2]; no supplemental plasmid, ΔramR mutant", "result": 0.03, "unit": "mg/L"},
      {"measurement": "MIC", "setting": "[2]; no supplemental plasmid, ΔramRΔ35 (ΔramRΔompK35 mutant)", "result": 0.03, "unit": "mg/L"},
      {"measurement": "MIC", "setting": "[2]; no supplemental plasmid, ΔramRΔ35/36 (ΔramRΔompK35/36 mutant)", "result": 0.5, "unit": "mg/L"},
      {"measurement": "MIC", "setting": "[2]; no supplemental plasmid, ΔramRΔ36 (ΔramRΔompK36 mutant)", "result": 0.25, "unit": "mg/L"},
      {"measurement": "MIC", "setting": "[3]; WT, NVT1001, read-out: MIC", "result": 0.06, "unit": "mg/L"},
      {"measurement": "MIC", "setting": "[3]; Δ35, ΔompK35 mutant", "result": 0.06, "unit": "mg/L"},
      {"measurement": "MIC", "setting": "[3]; Δ35/36, ΔompK35/36 mutant", "result": 0.125, "unit": "mg/L"},
      {"measurement": "MIC", "setting": "[3]; Δ36, ΔompK36 mutant", "result": 0.06, "unit": "mg/L"},
      {"measurement": "MIC", "setting": "[3]; ΔramR mutant", "result": 0.03, "unit": "mg/L"},
      {"measurement": "MIC", "setting": "[3]; ΔramRΔ35, ΔramRΔompK35 mutant", "result": 0.03, "unit": "mg/L"},
      {"measurement": "MIC", "setting": "[3]; ΔramRΔ35/36, ΔramRΔompK35/36 mutant", "result": 0.5, "unit": "mg/L"},
      {"measurement": "MIC", "setting": "[3]; ΔramRΔ36, ΔramRΔompK36 mutant", "result": 0.25, "unit": "mg/L"}
    ]}
  ]
}
